Reference: patent US7825126B2 (The United States of America as represented by the …, priority 2004, dated 2010)

Experiments:
human A2A receptors = molecular target: T1, human A2A receptors (Homo sapiens, UniProt P29274); experiment: Binding at human A2A adenosine receptor ([3H]CGS21680, HEK-293 cell membranes); details: [3H]CGS 21680; for Ki: mean ± s.e.m., n = 3-5, read-out: Ki(hA2AAR)
T1 construct: expressed in transfected cells

[1] = molecular target: T2, human A2B adenosine receptor (hA2BAR) (Homo sapiens, UniProt P29275); experiment: Activation of human A2B adenosine receptor at 10 μM; assay type: cell-based; details: CHO cells
T2 sequence (P29275 1-332): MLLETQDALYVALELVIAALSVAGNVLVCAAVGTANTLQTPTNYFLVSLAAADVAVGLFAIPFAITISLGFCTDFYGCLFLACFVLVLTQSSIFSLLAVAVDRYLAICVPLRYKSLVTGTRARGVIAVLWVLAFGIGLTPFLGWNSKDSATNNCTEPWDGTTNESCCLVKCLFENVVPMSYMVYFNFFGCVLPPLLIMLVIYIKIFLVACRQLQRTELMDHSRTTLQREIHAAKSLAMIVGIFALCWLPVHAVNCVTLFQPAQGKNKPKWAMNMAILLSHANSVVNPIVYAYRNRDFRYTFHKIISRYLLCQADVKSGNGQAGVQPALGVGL

T1 sequence (P29274 whole entry): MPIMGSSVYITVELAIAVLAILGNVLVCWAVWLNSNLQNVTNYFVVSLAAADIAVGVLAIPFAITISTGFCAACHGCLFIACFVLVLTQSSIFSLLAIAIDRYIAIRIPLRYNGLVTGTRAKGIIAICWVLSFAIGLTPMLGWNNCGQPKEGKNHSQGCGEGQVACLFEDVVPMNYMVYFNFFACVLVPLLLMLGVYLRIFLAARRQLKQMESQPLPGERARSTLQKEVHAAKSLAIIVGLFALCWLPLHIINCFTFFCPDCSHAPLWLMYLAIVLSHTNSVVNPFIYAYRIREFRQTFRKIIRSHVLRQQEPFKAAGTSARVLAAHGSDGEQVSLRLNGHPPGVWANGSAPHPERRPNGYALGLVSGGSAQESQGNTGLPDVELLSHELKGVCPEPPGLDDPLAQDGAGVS

Ki (human A2A receptors) [µM] | % Activation (hA2BAR) at 10 μM [1] [%] | Compound | % displ. at 10 μM (hA2AAR) (human A2A receptors) [%]
0.43 ± 0.03 | 46 | CNC(=O)C12CC1C(n1cnc3c(NCc4cc(I)ccc4OC)nc(Cl)nc31)C(O)C2O (stereo not drawn) [Compound 25, (1′S,2′R,3′S,4′S,5′S)-4′-[6-(5-Iodo-2-methoxy-benzylamino)-2-chloro-purin-9-yl]-2′,3′-dihydroxy-bicyclo[3.1.0]hexane-1′-carboxylic acid methylamide] | 
0.8 ± 0.07 |  | CNC(=O)C12CC1C(n1cnc3c(NCc4cc(Cl)ccc4OCC(N)=O)nc(Cl)nc31)C(O)C2O (stereo not drawn) [Compound 23, (1′S,2′R,3′S,4′S,5′S)-4′-[6-(5-Chloro-2-(aminocarbonylmethyloxy)-benzylamino)-2-chloro-purin-9-yl]-2′,3′-dihydroxy-bicyclo[3.1.0]hexane-1′-carboxylic acid methylamide] | 
4.8 ± 0.2 | 48 | CNC(=O)[C@@]12C[C@@H]1[C@@H](n1cnc3c(N[C@@H]4C[C@H]4c4ccccc4)nc(Cl)nc31)[C@H](O)[C@@H]2O (relative stereo) [Compound 33, (1′S,2′R,3′S,4′R,5′S)-(4′-{2-chloro-6-[(trans-2-phenylcyclopropyl)amino]purin-9-yl}-2′,3′-dihydroxybicyclo[3.1.0]hexyl)-N-methylcarboxamide] | 
 | 22 | CNC(=O)C12CC1C(n1cnc3c(NCc4ccc(N)cc4)nc(Cl)nc31)C(O)C2O (stereo not drawn) [Compound 31a, (1′S,2′R,3′S,4′S,5′S)-4′-[6-(4-Amino-benzylamino)-2-chloro-purin-9-yl]-2′,3′-dihydroxy-bicyclo[3.1.0]hexane-1′-carboxylic acid methylamide] | 28
5.1 ± 0.2 | 28 | CNC(=O)C12CC1C(n1cnc3c(NCc4cccc(F)c4)nc(Cl)nc31)C(O)C2O (stereo not drawn) [Compound 19, (1′S,2′R,3′S,4′S,5′S)-4′-[6-(3-Fluorobenzylamino)-2-chloro-purin-9-yl]-2′,3′-dihydroxy-bicyclo[3.1.0]hexane-1′-carboxylic acid methylamide] | 
1.2 ± 0.1 | 37 | CNC(=O)C12CC1C(n1cnc3c(NCc4cc(Cl)ccc4OC)nc(Cl)nc31)C(O)C2O (stereo not drawn) [Compound 22, (1′S,2′R,3′S,4′S,5′S)-4′-[6-(5-Chloro-2-methoxy-benzylamino)-2-chloro-purin-9-yl]-2′,3′-dihydroxy-bicyclo[3.1.0]hexane-1′-carboxylic acid methylamide] | 
 |  | CNC(=O)[C@@]12C[C@@H]1[C@H](n1cnc3c(NC)nc(N)nc31)[C@H](O)[C@@H]2O [Compound 15, (1′S,2′R,3′S,4′S,5′S)-4′-[6-Methylamino-2-amino-purin-9-yl]-2′,3′-dihydroxy-bicyclo[3.1.0]hexane-1′-carboxylic acid methylamide] | 17
3.8 ± 0.2 | 24 | CNC(=O)C12CC1C(n1cnc3c(NCc4ccccc4C)nc(Cl)nc31)C(O)C2O (stereo not drawn) [Compound 27, (1′S,2′R,3′S,4′S,5′S)-4′-[6-(2-Methyl-benzylamino)-2-chloro-purin-9-yl]-2′,3′-dihydroxy-bicyclo[3.1.0]hexane-1′-carboxylic acid methylamide] | 
3.7 ± 0.6 | 46 | CNC(=O)C12CC1C(n1cnc3c(NCc4cccc(C)c4)nc(Cl)nc31)C(O)C2O (stereo not drawn) [Compound 28, (1′S,2′R,3′S,4′S,5′S)-4′-[6-(3-Methyl-benzylamino)-2-chloro-purin-9-yl]-2′,3′-dihydroxy-bicyclo[3.1.0]hexane-1′-carboxylic acid methylamide] | 
 |  | CCOC(=O)[C@@]12C[C@@H]1[C@H](n1cnc3c(NCc4cccc(Cl)c4)nc(I)nc31)[C@H](O)[C@@H]2O [Compound 35, (1′S,2′R,3′S,4′S,5′S)-4′-[6-(3-Chlorobenzylamino)-2-iodo-purin-9-yl]-2′,3′-dihydroxy-bicyclo[3.1.0]hexane-1′-carboxylic acid ethyl ester] | 43
1.1 ± 0.1 |  | CNC(=O)[C@@]12C[C@@H]1[C@@H](n1cnc3c(NCc4ccc(N)c(I)c4)nc(Cl)nc31)[C@H](O)[C@@H]2O [Compound 31b] | 
